Results: patent US6784205B2, “Compounds that modulate the activity of PTP-1B and TC-PTP” (Sunesis Pharmaceuticals, Inc., priority 2002, dated 2004)
pIC50: −log10 of the molar value.

What was measured:
[1] = target: T1, human PTP-1B (Homo sapiens, UniProt P18031); experiment: PTP-1B IC50 determination with pNPP substrate; type: biochemical
T1 construct: A shorter cDNA, PTP-1B 298, encoding amino acid residues 1-298 was generated; made in house; host or cells: E. coli BL21 codon plus (Stratagene), pRSETc
T1 sequence (P18031 1-298): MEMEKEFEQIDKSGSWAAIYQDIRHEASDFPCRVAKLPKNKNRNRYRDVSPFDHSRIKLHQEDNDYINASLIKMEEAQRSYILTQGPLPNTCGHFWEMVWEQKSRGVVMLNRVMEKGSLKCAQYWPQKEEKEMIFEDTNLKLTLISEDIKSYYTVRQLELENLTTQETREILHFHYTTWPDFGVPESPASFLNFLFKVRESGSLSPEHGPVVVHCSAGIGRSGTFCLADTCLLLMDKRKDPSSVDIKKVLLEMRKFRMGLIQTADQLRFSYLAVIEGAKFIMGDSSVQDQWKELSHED

[2] = target: T2, TC-PTP (Homo sapiens, UniProt P17706); experiment: Inhibition of TC-PTP; type: biochemical; conditions: read-out: IC50 against TC-PTP
T2 sequence (P17706 1-415): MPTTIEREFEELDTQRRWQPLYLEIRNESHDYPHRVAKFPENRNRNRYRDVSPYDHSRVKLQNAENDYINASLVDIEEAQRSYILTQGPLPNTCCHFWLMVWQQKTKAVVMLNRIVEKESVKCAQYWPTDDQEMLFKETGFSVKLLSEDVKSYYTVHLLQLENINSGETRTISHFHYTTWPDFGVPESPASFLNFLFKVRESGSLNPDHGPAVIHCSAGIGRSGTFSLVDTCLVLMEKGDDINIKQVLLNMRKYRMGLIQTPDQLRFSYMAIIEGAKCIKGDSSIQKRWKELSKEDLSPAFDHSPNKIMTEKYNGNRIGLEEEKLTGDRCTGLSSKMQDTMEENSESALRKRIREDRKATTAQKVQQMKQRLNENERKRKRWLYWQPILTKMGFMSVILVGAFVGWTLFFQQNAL

[3] = test system: insulin receptor phosphorylation in CHO-IR cells; experiment: Insulin receptor phosphorylation in CHO-IR cells (ELISA); type: cell-based; conditions: compound added 1 hour prior to harvesting, FIG. 9
Experimental: This example describes an illustrative assay for quantifying the degree of insulin receptor phosphorylation in cells. Any suitable cells can be used. In this example, CHO-IR cells were grown in DMEM w/10% fetal bovine serum supplemented with penicillin and streptomycin. Cells were plated at a density of 40,000 cells per well in a 96 well plate. The following day, the medium was changed to DMEM without serum and the cells were serum starved for 16 hours. 1 hour prior to harvesting, varying concentrations of a test compound diluted in DMEM were added to the cells. Where indicated, human insulin was added to cells 10 minutes prior to harvesting. Cell were lysed in 30 mM HEPES, 150 mM NaCl, 1% triton X-100, and 0.02% sodium azide. Insulin receptor phosphorylation was quantitated in an ELISA assay as described previously (Jongsoon Lee).

[4] = target: tyrosine phosphatase leukocyte common antigen related protein (LAR) (Homo sapiens, UniProt P10586); experiment: Inhibition of LAR; type: biochemical
Chain of tyrosine phosphatase leukocyte common antigen related protein (LAR) (P10586 30-1907): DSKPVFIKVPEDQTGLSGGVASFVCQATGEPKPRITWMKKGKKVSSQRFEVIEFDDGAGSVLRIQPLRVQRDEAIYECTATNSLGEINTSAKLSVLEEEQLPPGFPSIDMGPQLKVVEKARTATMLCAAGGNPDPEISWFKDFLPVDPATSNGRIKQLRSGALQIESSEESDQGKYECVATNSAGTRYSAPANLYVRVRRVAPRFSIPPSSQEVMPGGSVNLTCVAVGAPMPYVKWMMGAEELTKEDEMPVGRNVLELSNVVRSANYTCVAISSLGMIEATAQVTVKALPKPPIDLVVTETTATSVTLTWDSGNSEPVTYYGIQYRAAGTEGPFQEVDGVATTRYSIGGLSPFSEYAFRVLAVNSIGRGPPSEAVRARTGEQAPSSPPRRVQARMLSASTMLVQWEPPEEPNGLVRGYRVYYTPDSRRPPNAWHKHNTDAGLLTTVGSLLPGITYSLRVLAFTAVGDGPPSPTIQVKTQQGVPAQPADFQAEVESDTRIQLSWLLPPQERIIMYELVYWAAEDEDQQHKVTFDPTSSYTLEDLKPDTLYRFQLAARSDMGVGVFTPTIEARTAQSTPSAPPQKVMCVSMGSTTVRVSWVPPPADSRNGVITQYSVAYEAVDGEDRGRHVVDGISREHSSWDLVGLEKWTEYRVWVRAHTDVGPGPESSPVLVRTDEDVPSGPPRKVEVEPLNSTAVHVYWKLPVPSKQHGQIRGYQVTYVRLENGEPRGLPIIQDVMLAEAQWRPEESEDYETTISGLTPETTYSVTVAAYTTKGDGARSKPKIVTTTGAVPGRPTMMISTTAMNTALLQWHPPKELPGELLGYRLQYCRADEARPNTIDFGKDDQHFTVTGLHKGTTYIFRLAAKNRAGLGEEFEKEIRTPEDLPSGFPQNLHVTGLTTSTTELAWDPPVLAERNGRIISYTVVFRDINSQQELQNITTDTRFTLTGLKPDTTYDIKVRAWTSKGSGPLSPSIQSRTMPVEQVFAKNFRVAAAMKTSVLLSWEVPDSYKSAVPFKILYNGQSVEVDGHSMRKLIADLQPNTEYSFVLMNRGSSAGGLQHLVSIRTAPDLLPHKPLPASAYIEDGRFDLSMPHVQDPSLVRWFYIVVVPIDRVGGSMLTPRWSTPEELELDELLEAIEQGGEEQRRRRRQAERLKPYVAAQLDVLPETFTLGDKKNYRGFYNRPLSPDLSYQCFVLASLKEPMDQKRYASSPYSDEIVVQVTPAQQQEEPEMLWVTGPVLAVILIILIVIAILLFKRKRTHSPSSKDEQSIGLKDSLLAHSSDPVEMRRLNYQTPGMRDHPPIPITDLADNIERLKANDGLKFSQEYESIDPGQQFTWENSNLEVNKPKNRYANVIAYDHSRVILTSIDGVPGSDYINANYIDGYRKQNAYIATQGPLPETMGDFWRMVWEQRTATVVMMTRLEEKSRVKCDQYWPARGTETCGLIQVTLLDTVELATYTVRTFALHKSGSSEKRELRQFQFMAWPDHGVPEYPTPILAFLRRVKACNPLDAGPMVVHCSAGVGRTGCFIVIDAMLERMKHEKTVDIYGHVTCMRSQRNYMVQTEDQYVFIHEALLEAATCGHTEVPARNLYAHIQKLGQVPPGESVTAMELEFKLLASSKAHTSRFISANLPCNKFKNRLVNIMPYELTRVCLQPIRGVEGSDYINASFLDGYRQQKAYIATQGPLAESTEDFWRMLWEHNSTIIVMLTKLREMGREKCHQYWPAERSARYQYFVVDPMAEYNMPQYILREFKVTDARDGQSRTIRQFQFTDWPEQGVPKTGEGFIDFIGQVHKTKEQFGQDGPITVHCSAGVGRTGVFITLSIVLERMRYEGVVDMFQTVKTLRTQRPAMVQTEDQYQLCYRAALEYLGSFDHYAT

## CCc1oc2cc(S(=O)(=O)Nc3ccc(S(N)(=O)=O)cc3)ccc2c1C(=O)c1cc(Br)c(O)c(Br)c1 [compound 5]
[1]; pNPP, varying concentrations of inhibitor
  dependence of reaction velocity on substrate concentration: sigmoidal dependence
[1]; reaction velocity versus pNPP concentration, FIG. 8
  effect on Vmax with increasing inhibitor concentration: decrease in Vmax
[2]
  pIC50: ~3.89
[3]
  level of insulin receptor phosphorylation: is a function of the concentration of compound 5
[4]
  inhibition of LAR: does not inhibit
